In patent US11046697B2, “Compounds and compositions useful for treating disorders related to NTRK” (BLUEPRINT MEDICINES CORPORATION, priority 2015, dated 2021):
Like-named read-outs stand apart in the source and are kept apart here.

Experiments:
wild type NTRK1 enzyme = molecular target: T1, wild type NTRK1 enzyme (Homo sapiens, UniProt P04629); assay: NTRK1 Wild Type Assay at 1 mM ATP; type: biochemical; conditions: 1 mM ATP; read-out: Enz NTRK1 IC50
T1 construct: purchased BPS Bioscience 40280
T1 sequence (P04629 440-796 limits assumed): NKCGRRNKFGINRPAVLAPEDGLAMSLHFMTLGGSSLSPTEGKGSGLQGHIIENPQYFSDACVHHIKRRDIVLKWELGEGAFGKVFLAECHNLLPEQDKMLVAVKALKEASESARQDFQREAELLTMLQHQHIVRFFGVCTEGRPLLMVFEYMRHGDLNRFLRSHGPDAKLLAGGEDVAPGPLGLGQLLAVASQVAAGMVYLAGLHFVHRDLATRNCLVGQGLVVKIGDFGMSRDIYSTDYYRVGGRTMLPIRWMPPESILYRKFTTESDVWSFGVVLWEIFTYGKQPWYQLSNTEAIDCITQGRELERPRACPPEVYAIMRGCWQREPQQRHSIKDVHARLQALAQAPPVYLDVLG
Procedure: NTRK1 Wild Type Assay at 1 mM ATP
The reaction was stopped by the addition of 70 μL of Stop buffer (100 mM HEPES pH 7.5, 0.015% Brij 35, 35 mM EDTA and 0.2% of Coating Reagent 3 (Caliper Lifesciences)). The plate was then read on a Caliper EZReader 2 (protocol settings: −1.7 psi, upstream voltage −500, downstream voltage −3000, post sample sip 35s).

[1] = tested on: KM12 wild type colon carcinoma cell line harboring the TPM3-NTRK1 fusion protein; assay: NTRK wild type cellular assay (CellTiter-Glo growth inhibition); type: cell-based; conditions: 72 hr, CellTiter-Glo, read-out: KM12 (WT) IC50
In short: (§1)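 KM12 (TPM3-NTRK1 fusion) or KM12 Cliff (G595R) cells at 1000 cells/well in 10% FBS media were dosed with compounds at varying concentrations in duplicate after overnight plating.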

[2] = tested on: KM12 Cliff (G595R) cell line; assay: NTRK G595R mutant cellular assay (CellTiter-Glo growth inhibition); type: cell-based; conditions: 72 hr, CellTiter-Glo
In short: as §1

Row | Structure (SMILES) | IC50 (wild type NTRK1 enzyme) [nM] | IC50 ([1]; Homo sapiens, KM12, 72 h) [nM] | IC50 [1] [nM] | IC50 ([2]; Homo sapiens, KM12, 72 h) [nM] | IC50 [2] [nM]
1 | O=C(c1n[nH]c2ncnc(N[C@@H]3C=C[C@@H](O)[C@H]3O)c12)N1C[C@@H](F)C[C@@H]1c1cc(F)cc(F)c1F [Compound 199] | 10 to 100 | – | < 10 | – | < 10
2 | O=C(c1n[nH]c2ncnc(NC3CC(F)CC3O)c12)N1CC(F)CC1c1cc(F)cnc1Cl (stereo not drawn) [Compound 207] | 10 to 100 | – | 10 to 100 | – | 10 to 100
3 | COc1c(F)cc(F)cc1[C@H]1C[C@H](F)CN1C(=O)c1n[nH]c2ncnc(N[C@@H]3CC[C@@H](O)[C@H]3O)c12 [Compound 219] | < 10 | – | < 10 | – | < 10
4 | O=C(c1n[nH]c2ncnc(N[C@H]3[C@H](O)[C@H](O)[C@@H]4C[C@@H]43)c12)N1C[C@@H](F)C[C@@H]1c1cc(F)cc(F)c1F [Compound 220] | < 10 | – | < 10 | – | < 10
5 | O=C(c1n[nH]c2ncnc(N[C@@H]3CCC[C@@H](O)[C@H]3O)c12)N1C[C@@H](F)C[C@@H]1c1cc(Cl)ccc1F [Compound 221] | < 10 | < 10 | – | < 10 | –
6 | O=C(c1n[nH]c2ncnc(N[C@@H]3COC[C@@H](O)[C@H]3O)c12)N1C[C@@H](F)C[C@@H]1c1cc(F)ccc1Cl [Compound 222] | < 10 | 10 to 100 | – | 10 to 100 | –
7 | O=C(c1n[nH]c2ncnc(NC3COCC(O)C3O)c12)N1CC(F)CC1c1cc(F)cc(Cl)c1 (stereo not drawn) [Compound 223] | < 10 | – | 10 to 100 | – | 10 to 100
8 | O=C(c1n[nH]c2ncnc(N[C@@H]3CCC[C@@H](O)[C@H]3O)c12)N1C[C@@H](F)C[C@@H]1c1cc(F)cc(F)c1F [Compound 224] | < 10 | < 10 | – | < 10 | –
9 | O=C(c1n[nH]c2ncnc(NC3CCCC(F)(F)[C@H]3O)c12)N1C[C@@H](F)C[C@@H]1c1cc(F)ccc1F (stereo partly drawn) [Compound 225] | < 10 | – | 10 to 100 | – | 10 to 100
10 | O=C(c1n[nH]c2ncnc(N[C@@H]3C[C@@H](C(F)F)C[C@H]3O)c12)N1C[C@@H](F)C[C@@H]1c1cc(F)ccc1F [Compound 226, (4-(((1R,2R,4R)-4-(difluoromethyl)-2-hydroxycyclopentyl)amino)-1H-pyrazolo[3,4-d]pyrimidin-3-yl)((2R,4S)-2-(2,5-difluorophenyl)-4-fluoropyrrolidin-1-yl)methanone] | < 10 | < 10 | – | < 10 | –
11 | O=C(c1n[nH]c2ncnc(N[C@@H]3CC(F)(F)[C@@H](O)[C@H]3O)c12)N1C[C@@H](F)C[C@@H]1c1cc(F)ccc1F [Compound 227] | < 10 | – | < 10 | – | < 10
12 | CN(Cc1cc(F)ccc1OC(F)(F)F)C(=O)c1n[nH]c2ncnc(NC3COCC(O)C3O)c12 (stereo not drawn) [Compound 228] | 10 to 100 | – | 10 to 100 | – | 10 to 100
13 | O=C(c1n[nH]c2ncnc(N[C@@H]3CN(C4COC4)C[C@H]3O)c12)N1C[C@@H](F)C[C@@H]1c1cc(F)ccc1F [Compound 229, ((2R,4S)-2-(2,5-difluorophenyl)-4-fluoropyrrolidin-1-yl)(4-(((3R,4R)-4-hydroxy-1-(oxetan-3-yl)pyrrolidin-3-yl)amino)-1H-pyrazolo[3,4-d]pyrimidin-3-yl)methanone] | < 10 | < 10 | – | < 10 | –
14 | N#Cc1cc(F)cc([C@H]2C[C@H](F)CN2C(=O)c2n[nH]c3ncnc(N[C@@H]4CCCC(F)(F)[C@H]4O)c23)c1 [Compound 230] | < 10 | 10 to 100 | – | 10 to 100 | –
15 | O=C(c1n[nH]c2ncnc(N[C@@H]3CCCC(F)(F)[C@H]3O)c12)N1C[C@@H](F)C[C@@H]1c1cncc(F)c1 [Compound 231] | 10 to 100 | 10 to 100 | – | 100 to 1000 | –
16 | CC(C)(O)[C@H]1C[C@@H](O)[C@H](Nc2ncnc3[nH]nc(C(=O)N4C[C@@H](F)C[C@@H]4c4cc(F)ccc4F)c23)C1 [Compound 232, ((2R,4S)-2-(2,5-difluorophenyl)-4-fluoropyrrolidin-1-yl)(4-(((1R,2R,4R)-2-hydroxy-4-(2-hydroxypropan-2-yl)cyclopentyl)amino)-1H-pyrazolo[3,4-d]pyrimidin-3-yl)methanone] | < 10 | < 10 | – | < 10 | –
17 | COc1c(F)cc(F)cc1[C@H]1C[C@H](F)CN1C(=O)c1n[nH]c2ncnc(N[C@H]3[C@H](O)[C@H](O)[C@@H]4C[C@@H]43)c12 [Compound 233] | < 10 | – | < 10 | – | < 10
18 | COc1c(F)cc(F)cc1C1CC(F)CN1C(=O)c1n[nH]c2ncnc(NC3CCCC(O)C3O)c12 (stereo not drawn) [Compound 234] | < 10 | – | < 10 | – | < 10
19 | O=C(c1n[nH]c2ncnc(N[C@@H]3C=C[C@@H](O)[C@H]3O)c12)N1C[C@@H](F)C[C@@H]1c1cc(F)ccc1OC(F)F [Compound 235] | < 10 | – | 10 to 100 | – | 10 to 100
20 | COc1c(F)cc(F)cc1[C@H]1C[C@H](F)CN1C(=O)c1n[nH]c2ncnc(N[C@@H]3COC[C@@H](O)[C@H]3O)c12 [Compound 236] | < 10 | < 10 | – | 10 to 100 | –
21 | O=C(c1n[nH]c2ncnc(N[C@@H]3CC[C@@H](O)[C@H]3O)c12)N1C[C@@H](F)C[C@@H]1c1cc(F)ccc1OC(F)F [Compound 237] | < 10 | 10 to 100 | – | 10 to 100 | –

Further lines, with some results ahead:

Row | IC50 (wild type NTRK1 enzyme) [nM] | IC50 ([1]; Homo sapiens, KM12, 72 h) [nM] | IC50 [1] [nM] | Structure (SMILES) | IC50 ([2]; Homo sapiens, KM12, 72 h) [nM] | IC50 [2] [nM]
22 | < 10 | 10 to 100 | – | O=C(c1n[nH]c2ncnc(N[C@@H]3COC[C@@H](O)[C@H]3O)c12)N1C[C@@H](F)C[C@@H]1c1cc(F)cc(F)c1 [Compound 197] | 10 to 100 | –
23 | < 10 | – | < 10 | O=C(c1n[nH]c2ncnc(NC3CCOCC3O)c12)N1CC(F)CC1c1cc(F)cc(Cl)c1 (stereo not drawn) [Compound 198] | – | < 10
24 | < 10 | 10 to 100 | – | O=C(c1n[nH]c2ncnc(N[C@@H]3CCOC[C@H]3O)c12)N1C[C@@H](F)C[C@@H]1c1cc(Cl)ccc1F [Compound 200] | 10 to 100 | –
25 | < 10 | – | < 10 | O=C(c1n[nH]c2ncnc(N[C@@H]3CC[C@@H](O)[C@H]3O)c12)N1C[C@@H](F)C[C@@H]1c1cc(Cl)ccc1F [Compound 201] | – | < 10
26 | < 10 | 10 to 100 | – | O=C(c1n[nH]c2ncnc(N[C@@H]3CCOC[C@H]3O)c12)N1C[C@@H](F)C[C@@H]1c1cc(F)cnc1Cl [Compound 202] | 10 to 100 | –
27 | < 10 | < 10 | – | O=C(c1n[nH]c2ncnc(N[C@@H]3C[C@@H](C(F)F)C[C@H]3O)c12)N1C[C@@H](F)C[C@@H]1c1cncc(F)c1 [Compound 203] | < 10 | –
28 | < 10 | < 10 | – | O=C(c1n[nH]c2ncnc(N[C@@H]3COCC[C@H]3O)c12)N1C[C@@H](F)C[C@@H]1c1cc(F)cc(F)c1F [Compound 204] | < 10 | –
29 | < 10 | – | < 10 | O=C(c1n[nH]c2ncnc(NC3CCOCC3O)c12)N1CC(F)CC1c1cc(F)cc(F)c1F (stereo not drawn) [Compound 205] | – | < 10
30 | < 10 | – | < 10 | O=C(c1n[nH]c2ncnc(N[C@@H]3CC[C@@H](O)[C@H]3O)c12)N1C[C@@H](F)C[C@@H]1c1cc(F)cc(F)c1F [Compound 206] | – | < 10
31 | < 10 | < 10 | – | O=C(c1n[nH]c2ncnc(NC3CC(F)CC3O)c12)N1CC(F)CC1c1cc(F)cc(F)c1F (stereo not drawn) [Compound 208] | < 10 | –
32 | < 10 | – | 10 to 100 | CN(Cc1cc(F)ccc1C(F)(F)F)C(=O)c1n[nH]c2ncnc(NC3COCC(O)C3O)c12 (stereo not drawn) [Compound 209] | – | 10 to 100
33 | < 10 | < 10 | – | N#C[C@H]1C[C@@H](O)[C@H](Nc2ncnc3[nH]nc(C(=O)N4C[C@@H](F)C[C@@H]4c4cc(F)cc(Cl)c4)c23)C1 [Compound 211] | < 10 | –
34 | < 10 | – | < 10 | N#C[C@H]1C[C@@H](O)[C@H](Nc2ncnc3[nH]nc(C(=O)N4C[C@@H](F)C[C@@H]4c4cc(F)cc(F)c4F)c23)C1 [Compound 212] | – | < 10
35 | < 10 | < 10 | – | O=C(c1n[nH]c2ncnc(N[C@H]3[C@H](O)[C@H](O)[C@@H]4C[C@@H]43)c12)N1C[C@@H](F)C[C@@H]1c1cc(F)ccc1Cl [Compound 213] | < 10 | –
36 | < 10 | < 10 | – | O=C(c1n[nH]c2ncnc(N[C@H]3[C@H](O)[C@H](O)[C@@H]4C[C@@H]43)c12)N1C[C@@H](F)C[C@@H]1c1cc(F)cc(Cl)c1 [Compound 214] | < 10 | –
37 | < 10 | – | < 10 | O=C(c1n[nH]c2ncnc(N[C@H]3[C@H](O)[C@H](O)[C@@H]4C[C@@H]43)c12)N1C[C@@H](F)C[C@@H]1c1cc(Cl)ccc1F [Compound 215] | – | < 10
38 | < 10 | – | < 10 | O=C(c1n[nH]c2ncnc(N[C@H]3[C@H](O)[C@H](O)[C@@H]4C[C@@H]43)c12)N1C[C@@H](F)C[C@@H]1c1cc(F)cnc1F [Compound 216] | – | < 10
39 | < 10 | – | < 10 | O=C(c1n[nH]c2ncnc(NC3CCCC(O)C3O)c12)N1CC(F)CC1c1cc(F)ccc1Cl (stereo not drawn) [Compound 217] | – | < 10
40 | < 10 | – | < 10 | COc1c(F)cc(F)cc1C1CC(F)CN1C(=O)c1n[nH]c2ncnc(NC3CCOCC3O)c12 (stereo not drawn) [Compound 218] | – | < 10
